According to patent US11427549B2, “Pyrimidinyloxy benzo-fused compounds as herbicides” (FMC Corporation, priority 2017, dated 2022):

Columns and labels:
[1] = tested on: blackgrass (Alopecurus myosuroides); assay: Test A postemergence, blackgrass; format: in vivo; conditions: Alopecurus myosuroides, post-emergence, 240 h, 0 to 100 scale (0 no effect, 100 complete control), read-out: Plant response rating, Blackgrass; for pest or weed control at 31 g/ha: 31 g ai/ha; for pest or weed control at 125 g/ha: 125 g ai/ha
[2] = tested on: barnyardgrass (Echinochloa crus-galli); assay: Test B flooded paddy test, barnyardgrass; conditions: Echinochloa crus-galli, read-out: Plant response rating, Barnyardgrass (0 to 100 scale, 0 is no effect, 100 is complete control)
[3] = tested on: foxtail, giant (giant foxtail, Setaria faberii); assay: Test A preemergence, foxtail, giant; format: in vivo; conditions: Setaria faberi, pre-emergence, 240 h, 0 to 100 scale (0 no effect, 100 complete control), read-out: Plant response rating, Foxtail, Giant; for pest or weed control at 31 g/ha: 31 g ai/ha; for pest or weed control at 125 g/ha: 125 g ai/ha
[4] = tested on: corn (Zea mays); assay: Test A postemergence, corn; format: in vivo; conditions: Zea mays, post-emergence, 240 h, 0 to 100 scale (0 no effect, 100 complete control); for Corn plant response rating (crop injury, 0 = no effect, 100 = complete kill) at 31 g/ha: 31 g ai/ha; for Corn plant response rating (crop injury, 0 = no effect, 100 = complete kill) at 125 g/ha: 125 g ai/ha
[5] = tested on: galium (catchweed bedstraw, Galium aparine); assay: Test A postemergence, galium; format: in vivo; conditions: Galium, post-emergence, 240 h, 0 to 100 scale (0 no effect, 100 complete control), read-out: Plant response rating, Galium; for pest or weed control at 31 g/ha: 31 g ai/ha; for pest or weed control at 125 g/ha: 125 g ai/ha
[6] = tested on: ragweed (common ragweed, Ambrosia elatior); assay: Test A postemergence, ragweed; format: in vivo; conditions: Ambrosia artemisiifolia, post-emergence, 240 h, 0 to 100 scale (0 no effect, 100 complete control), read-out: Plant response rating, Ragweed; for pest or weed control at 31 g/ha: 31 g ai/ha; for pest or weed control at 125 g/ha: 125 g ai/ha
[7] = tested on: pigweed (Amaranthus retroflexus); assay: Test A postemergence, pigweed; format: in vivo; conditions: Amaranthus retroflexus, post-emergence, 240 h, 0 to 100 scale (0 no effect, 100 complete control), read-out: Plant response rating, Pigweed; for pest or weed control at 31 g/ha: 31 g ai/ha; for pest or weed control at 125 g/ha: 125 g ai/ha
[8] = tested on: ragweed (common ragweed, Ambrosia elatior); assay: Test A preemergence, ragweed; format: in vivo; conditions: Ambrosia artemisiifolia, pre-emergence, 240 h, 0 to 100 scale (0 no effect, 100 complete control), read-out: Plant response rating, Ragweed; for pest or weed control at 31 g/ha: 31 g ai/ha; for pest or weed control at 125 g/ha: 125 g ai/ha
[9] = tested on: rice (Oryza sativa); assay: Test B flooded paddy test, rice; conditions: Oryza sativa, read-out: Plant response rating, Rice (0 to 100 scale, 0 is no effect, 100 is complete control)
[10] = tested on: ryegrass, Italian (Italian ryegrass, Lolium multiflorum); assay: Test A postemergence, ryegrass, Italian; format: in vivo; conditions: Lolium multiflorum, post-emergence, 240 h, 0 to 100 scale (0 no effect, 100 complete control), read-out: Plant response rating, Ryegrass, Italian; for pest or weed control at 31 g/ha: 31 g ai/ha; for pest or weed control at 125 g/ha: 125 g ai/ha
[11] = tested on: wheat (Triticum aestivum); assay: Test A postemergence, wheat; format: in vivo; conditions: Triticum aestivum, post-emergence, 240 h, 0 to 100 scale (0 no effect, 100 complete control), read-out: Plant response rating, Wheat; for plant injury at 31 g/ha: 31 g ai/ha; for plant injury at 125 g/ha: 125 g ai/ha
[12] = tested on: pigweed (Amaranthus retroflexus); assay: Test A preemergence, pigweed; format: in vivo; conditions: Amaranthus retroflexus, pre-emergence, 240 h, 0 to 100 scale (0 no effect, 100 complete control), read-out: Plant response rating, Pigweed; for pest or weed control at 31 g/ha: 31 g ai/ha; for pest or weed control at 125 g/ha: 125 g ai/ha
[13] = tested on: kochia (Kochia scoparia); assay: Test A preemergence, kochia; format: in vivo; conditions: Bassia scoparia, pre-emergence, 240 h, 0 to 100 scale (0 no effect, 100 complete control), read-out: Plant response rating, Kochia; for pest or weed control at 31 g/ha: 31 g ai/ha; for pest or weed control at 125 g/ha: 125 g ai/ha
[14] = tested on: barnyardgrass (Echinochloa crus-galli); assay: Test A preemergence, barnyardgrass; format: in vivo; conditions: Echinochloa crus-galli, pre-emergence, 240 h, 0 to 100 scale (0 no effect, 100 complete control), read-out: Plant response rating, Barnyardgrass; for pest or weed control at 31 g/ha: 31 g ai/ha; for pest or weed control at 125 g/ha: 125 g ai/ha
[15] = tested on: barnyardgrass (Echinochloa crus-galli); assay: Test A postemergence, barnyardgrass; format: in vivo; conditions: Echinochloa crus-galli, post-emergence, 240 h, 0 to 100 scale (0 no effect, 100 complete control), read-out: Plant response rating, Barnyardgrass; for pest or weed control at 31 g/ha: 31 g ai/ha; for pest or weed control at 125 g/ha: 125 g ai/ha
[16] = tested on: kochia (Kochia scoparia); assay: Test A postemergence, kochia; format: in vivo; conditions: Bassia scoparia, post-emergence, 240 h, 0 to 100 scale (0 no effect, 100 complete control), read-out: Plant response rating, Kochia; for pest or weed control at 31 g/ha: 31 g ai/ha; for pest or weed control at 125 g/ha: 125 g ai/ha
[17] = tested on: ducksalad (Heteranthera limosa); assay: Test B flooded paddy test, ducksalad; conditions: Heteranthera limosa, read-out: Plant response rating, Ducksalad (0 to 100 scale, 0 is no effect, 100 is complete control)
[18] = tested on: ryegrass, Italian (Italian ryegrass, Lolium multiflorum); assay: Test A preemergence, ryegrass, Italian; format: in vivo; conditions: Lolium multiflorum, pre-emergence, 240 h, 0 to 100 scale (0 no effect, 100 complete control), read-out: Plant response rating, Ryegrass, Italian; for pest or weed control at 31 g/ha: 31 g ai/ha; for pest or weed control at 125 g/ha: 125 g ai/ha

| Compound | pest or weed control at 31 g/ha [1] [%] | pest or weed control at 125 g/ha [1] [%] | pest or weed control at 250 g/ha [2] [%] | pest or weed control at 31 g/ha [3] [%] | pest or weed control at 125 g/ha [3] [%] | Corn plant response rating (crop injury, 0 = no effect, 100 = complete kill) at 31 g/ha [4] [%] | Corn plant response rating (crop injury, 0 = no effect, 100 = complete kill) at 125 g/ha [4] [%] | pest or weed control at 31 g/ha [5] [%] | pest or weed control at 125 g/ha [5] [%] | pest or weed control at 31 g/ha [6] [%] | pest or weed control at 125 g/ha [6] [%] | pest or weed control at 31 g/ha [7] [%] | pest or weed control at 125 g/ha [7] [%] | pest or weed control at 31 g/ha [8] [%] | pest or weed control at 125 g/ha [8] [%] | plant injury at 250 g/ha [9] [%] | pest or weed control at 31 g/ha [10] [%] | pest or weed control at 125 g/ha [10] [%] | plant injury at 31 g/ha [11] [%] | plant injury at 125 g/ha [11] [%] | also measured |
| --- | --- | --- | --- | --- | --- | --- | --- | --- | --- | --- | --- | --- | --- | --- | --- | --- | --- | --- | --- | --- | --- |
| O=C1OCc2cccc(Oc3ncc(Cl)cn3)c2C1CCCCC(F)(F)F (stereo not drawn) [Compound 34, 5-[(5-Chloro-2-pyrimidinyl)oxy]-1,4-dihydro-4-(5,5,5-trifluoropentyl)-3H-2-benzopyran-3-one] | 0 | 10 | 0 | 0 | 10 | 10 | 20 | 20 | 50 | 0 | 0 | 10 | 40 | 0 | 0 | 0 | 0 | 0 | 0 | 10 | pest or weed control at 31 g/ha [12]: 0%; pest or weed control at 125 g/ha [12]: 0%; pest or weed control at 31 g/ha [13]: 0%; pest or weed control at 125 g/ha [13]: 0%; pest or weed control at 31 g/ha [14]: 0%; pest or weed control at 125 g/ha [14]: 0%; pest or weed control at 31 g/ha [15]: 0%; pest or weed control at 125 g/ha [15]: 10%; pest or weed control at 31 g/ha [16]: 20%; pest or weed control at 125 g/ha [16]: 10%; pest or weed control at 250 g/ha [17]: 0%; pest or weed control at 31 g/ha [18]: 0%; pest or weed control at 125 g/ha [18]: 0% |
| FC(F)(F)CC[C@H]1OCc2cccc(Oc3ncc(Cl)cn3)c21 [Compound 20, 5-Chloro-2-[[(3R)-1,3-dihydro-3-(3,3,3-trifluoropropyl)-4-isobenzofuranyl]oxy]-pyrimidine] | 80 | 100 | 90 | 100 | 100 | 30 | 50 | 90 | 100 | 30 | 70 | 100 | 100 | 30 | 100 | 30 | 30 | 80 | 20 | 90 | pest or weed control at 31 g/ha [12]: 100%; pest or weed control at 125 g/ha [12]: 100%; pest or weed control at 31 g/ha [13]: 100%; pest or weed control at 125 g/ha [13]: 100%; pest or weed control at 31 g/ha [14]: 70%; pest or weed control at 125 g/ha [14]: 100%; pest or weed control at 31 g/ha [15]: 40%; pest or weed control at 125 g/ha [15]: 100%; pest or weed control at 31 g/ha [16]: 90%; pest or weed control at 125 g/ha [16]: 100%; pest or weed control at 250 g/ha [17]: 100%; pest or weed control at 31 g/ha [18]: 10%; pest or weed control at 125 g/ha [18]: 60% |
| O=C1OCC(CCC(F)(F)F)c2c(Oc3ncc(Cl)cn3)cccc21 (stereo not drawn) [Compound 25, 5-[(5-Chloro-2-pyrimidinyl)oxy]-3,4-dihydro-4-(3,3,3-trifluoropropyl)-1H-2-benzopyran-1-one] | 20 | 60 | 0 | 20 | 90 | 20 | 20 | 30 | 40 | 0 | 30 | 30 | 50 | 0 | 0 | 0 | 0 | 0 | 0 | 10 | pest or weed control at 31 g/ha [12]: 10%; pest or weed control at 125 g/ha [12]: 100%; pest or weed control at 31 g/ha [13]: 0%; pest or weed control at 125 g/ha [13]: 70%; pest or weed control at 31 g/ha [14]: 0%; pest or weed control at 125 g/ha [14]: 30%; pest or weed control at 31 g/ha [15]: 0%; pest or weed control at 125 g/ha [15]: 10%; pest or weed control at 31 g/ha [16]: 30%; pest or weed control at 125 g/ha [16]: 60%; pest or weed control at 250 g/ha [17]: 0%; pest or weed control at 31 g/ha [18]: 0%; pest or weed control at 125 g/ha [18]: 0% |
